Results from patent publication US20060014727A1, “Angiogenic compounds and uses thereof” (priority 2002, published 2006).

Experiments:
[1] = tested on: chick chorioallantoic membrane (CAM); assay: Chick chorioallantoic membrane (CAM) assay; format: in vivo, Gallus gallus domesticus; conditions: 20, 40 and 60 μg/ml, 20 μl on gelatin sponge, day 8 to day 10
Procedure: Fertilized White Leghorn chicken eggs (Gallus gallus domesticus) were incubated at 37° C. under conditions of constant humidity. All chick eggs were handled according to institutional animal care procedures. On embryonic day 6, the developing chick chorioallantoic membrane (CAM) was separated from the shell by opening a small circular window at the broad end of the egg above the air sac. The embryos were checked for normal development, the window sealed with Parafilm, and the eggs returned to the incubator for 2 more days. On day 8, CAMs were treated with FGF-2 (30 ng/ml), sokotrasterol sulphate (20, 40 and 60 μg/ml) or PBS by loading 20 μl onto 2-mm^3 gelatin sponges (Gelfoam; Pharmacia Upjohn), which were then placed on the surface of the developing CAM. Eggs were resealed and returned to the incubator. On day 10, images of the CAMs were captured digitally using an Olympus SZX9 stereomicroscope (Olympus America) equipped with a Spot RT digital imaging system (Diagnostic Instruments). Neovascularization was quantitated for each CAM by counting the number of vessels that entered the sponge area, and dividing by the perimeter of the sponge (vessels/mm). Northern Eclipse version 6.0 (Empix Imaging Inc.) was used for manual vessel counting and mesh perimeter measurements.

[2] = tested on: Human umbilical vein endothelial cells (HUVEC); assay: Endothelial sprouting assay; format: cell-based; conditions: HUVEC-coated beads in fibrin gels, 3 days, 0.625 μg/ml to 5 μg/ml, FIG. 1, averages from seven independent experiments
Procedure: Human umbilical vein endothelial cells (HUVEC) from normal umbilical cords were obtained by collagenase treatment. Cultures were propagated in MCDB medium supplemented with 15% FCS, heparin, and endothelial cell growth supplement. Endothelial sprouting was assessed by a modification of the method of Nehls and Drenckhahn ^14. Briefly, microcarrier beads coated with gelatin (Cytodex 3, Sigma) were seeded with HUVEC. When the cells reached confluence on the beads, equal numbers of […] beads were embedded in fibrin gels in 96-well plates. For preparation of fibrin gels, bovine fibrinogen was dissolved in MCDB at a concentration of 2.5 mg/ml. Aprotinin was added at a concentration of 0.05 mg/ml and the solution filtered through a 0.22 micron filter. Fibrinogen solution was supplemented with FGF-2 or sokotrasterol sulphate. As a control, fibrinogen solution without angiogenic factor was used. Following transfer of the fibrinogen solution to 96-well plates, HUVEC-coated beads were added at a density of 50 beads/well, and clotting was induced by the addition of thrombin (1.2 U/ml). […] After 3 days of incubation with daily medium changes, the number of capillary-like tubes formed was quantitated by counting the number of tube-like structures per microcarrier bead (sprouts/bead). Only sprouts greater than 150 μm in length and composed of at least 3 endothelial cells were counted. […]

[3] = listed as Sokotrasterol sulphate

Substance: sokotrasterol sulphate
- neovascularization: number of vessels entering the gelatin sponge per mm of perimeter (vessels/mm) [1]: positive concentration-dependent effect
- neovascularization: number of vessels entering the gelatin sponge per mm of perimeter (vessels/mm) [1, 3]: promotes angiogenesis
- endothelial sprouting (number of tube-like structures per microcarrier bead, sprouts/bead) [2]: promoted endothelial sprouting in vitro in a concentration-dependent manner
- endothelial sprouting (number of tube-like structures per microcarrier bead, sprouts/bead) [2, 3]: promotes endothelial sprouting in vitro
